Experimental data from US10947188B2, “Small molecule ferroptosis inducers” (THE TRUSTEES OF COLUMBIA UNIVERSITY IN THE CITY OF NEW YORK, priority 2016, dated 2021).

Experiments:
[1] = Cobalt (II) binding assay in vitro (absorbance spectrum); details: absorbance 300-700 nm
Experimental: For each cluster I compound (CIL13, −52, and −64), prepared two-fold dilution series with DMSO. We added 30 μL per well of either water or 10 μM cobalt (II) chloride solution to each well of a 384-well plate. Dilution series of each compound in DMSO were added by 10 μL per well. After solutions had been mixed by shaking of the plate using a Victor 3 plate reader (PerkinElmer), absorbance was scanned between 300 and 700 nm for each compound. Finally the following Absorbance value for each compound was plotted (see FIG. 9B):
[formula] where Abs is the absorbance at each wavelength. Search of Commercially Available Structural Analogs of CIL41/70.

BJeLR = experiment: Modulatory profiling: Alamar Blue viability, lethal compound cotreated with death modulator (EC50, AUC); format: cell-based, human; design: AUC, modulator BJ.Gd3+ / AUC, modulator BJ.LNAME / AUC, modulator BJ.Lmin / AUC, modulator BJ.3MA / AUC, modulator BJ.ALLN / AUC, modulator BJ.Boc D / AUC, modulator BJ.CHX / AUC, modulator BJ.Co2+ / AUC, modulator BJ.Nec-1 / AUC, modulator BJ.Pepstatin / AUC, modulator BJ.TLCK / AUC, modulator BJ.atoc / AUC, modulator BJ.trolox / AUC, modulator BJ.zVAD: unit not given beside the values; details: BJeLR cells, modulatory profile value (AUC); for AUC, modulator BJ.3MA: lethal compound cotreated with modulator 3MA; for AUC, modulator BJ.ALLN: lethal compound cotreated with modulator ALLN; for AUC, modulator BJ.Boc D: lethal compound cotreated with modulator Boc D; for AUC, modulator BJ.CHX: lethal compound cotreated with modulator CHX; for AUC, modulator BJ.Co2+: lethal compound cotreated with modulator Co2+; for AUC, modulator BJ.DPQ: lethal compound cotreated with modulator DPQ; for AUC, modulator BJ.Gd3+: lethal compound cotreated with modulator Gd3+; for AUC, modulator BJ.LNAME: lethal compound cotreated with modulator LNAME; for AUC, modulator BJ.Lmin/NAD+: lethal compound cotreated with modulator Lmin/NAD+; for AUC, modulator BJ.Lmin: lethal compound cotreated with modulator Lmin; for AUC, modulator BJ.NAD+: lethal compound cotreated with modulator NAD+; for AUC, modulator BJ.NMMA: lethal compound cotreated with modulator NMMA; for AUC, modulator BJ.Nec-1: lethal compound cotreated with modulator Nec-1; for AUC, modulator BJ.Pepstatin: lethal compound cotreated with modulator Pepstatin; for AUC, modulator BJ.TLCK: lethal compound cotreated with modulator TLCK
HT-1080 = experiment: as above; format: cell-based; design: AUC, modulator HT.3MA / AUC, modulator HT.ALLN / AUC HT.ATA / AUC HT.ActD / AUC HT.BHA / AUC HT.BHT / AUC HT.BocD / AUC HT.CHX / AUC HT.Co2+ / AUC HT.DPQ / AUC HT.EGTA / AUC HT.Lmim / AUC HT.NAD+ / AUC HT.Nec-1 / AUC HT.SP600125 / AUC HT.TLCK / AUC HT.U0126: unit not given beside the values; details: for AUC HT.ATA: HT-1080, modulator ATA; for AUC HT.ActD: HT-1080, modulator ActD; for AUC HT.BHA: HT-1080, modulator BHA; for AUC HT.BHT: HT-1080, modulator BHT; for AUC HT.BocD: HT-1080, modulator BocD; for AUC HT.CHX: HT-1080, modulator CHX; for AUC HT.Co2+: HT-1080, modulator Co2+; for AUC HT.CspA: HT-1080, modulator CspA; for AUC HT.DPQ: HT-1080, modulator DPQ; for AUC HT.EGTA: HT-1080, modulator EGTA; for AUC HT.Gd3+: HT-1080, modulator Gd3+; for AUC HT.LNAME: HT-1080, modulator LNAME; for AUC HT.Lmim: HT-1080, modulator Lmim; for AUC HT.NAD+: HT-1080, modulator NAD+; for AUC HT.NMMA: HT-1080, modulator NMMA; for HT.atoc (AUC) / HT.bCarotene (AUC) / HT.deferox (AUC) / HT.digoxin (AUC) / HT.trolox (AUC) / HT.zVAD (AUC): HT-1080; for HT.atoc (AUC): modulator atoc; for HT.bCarotene (AUC): modulator bCarotene; for HT.deferox (AUC): modulator deferox; for HT.digoxin (AUC): modulator digoxin; for HT.trolox (AUC): modulator trolox; for HT.zVAD (AUC): modulator zVAD; for effect of cobalt (II) on lethality: modulatory profiles, CoCl2 supplementation

## Cc1cccnc1Nc1nc(-c2ccccn2)cs1 [CIL13]
[1]
  binding to cobalt (II) in vitro: bound to cobalt (II) in vitro
BJeLR
  AUC, modulator BJ.3MA: 0.09083
  AUC, modulator BJ.ALLN: −0.03933
  AUC, modulator BJ.Boc D: −0.02989
  AUC, modulator BJ.CHX: −0.1264
  AUC, modulator BJ.Co2+: 0.5287
  AUC, modulator BJ.DPQ: 0.007392
  AUC, modulator BJ.Gd3+: 0.04263
  AUC, modulator BJ.LNAME: 0.01544
  AUC, modulator BJ.Lmin/NAD+: −0.05456
  AUC, modulator BJ.Lmin: −0.03412
  AUC, modulator BJ.NAD+: 0.01378
  AUC, modulator BJ.NMMA: −0.03177
  AUC, modulator BJ.Nec-1: 0.04738
  AUC, modulator BJ.Pepstatin: 0.03784
  AUC, modulator BJ.TLCK: 0.3412
BJeLR; lethal compound cotreated with modulator atoc
  AUC, modulator BJ.atoc: −0.005646
BJeLR; lethal compound cotreated with modulator trolox
  AUC, modulator BJ.trolox: −0.006649
BJeLR; lethal compound cotreated with modulator zVAD
  AUC, modulator BJ.zVAD: −0.004568
HT-1080
  AUC HT.ATA: 0.04672
  AUC HT.ActD: −0.04327
  AUC HT.BHA: −0.06288
  AUC HT.BHT: −0.104
  AUC HT.BocD: 0.09941
  AUC HT.CHX: 0.03999
  AUC HT.Co2+: 0.2924
  AUC HT.CspA: 0.06243
  AUC HT.DPQ: −0.01515
  AUC HT.EGTA: 0.08353
  AUC HT.Gd3+: −0.03072
  AUC HT.LNAME: −0.07962
  AUC HT.Lmim: −0.06102
  AUC HT.NAD+: −0.04462
  AUC HT.NMMA: −0.04118
  HT.atoc (AUC): 0.1029
  HT.bCarotene (AUC): 0.01006
  HT.deferox (AUC): 0.05411
  HT.digoxin (AUC): 0.03512
  HT.trolox (AUC): −0.03975
  HT.zVAD (AUC): 0.01164
  effect of cobalt (II) on lethality: inhibited by cobalt (II)
HT-1080; HT-1080 cells, lethal compound cotreated with modulator 3MA, modulatory profile value (AUC)
  AUC, modulator HT.3MA: 0.02535
HT-1080; HT-1080 cells, lethal compound cotreated with modulator ALLN, modulatory profile value (AUC)
  AUC, modulator HT.ALLN: 0.01646

## C(=N\Nc1nc2ccccc2s1)/c1ccccn1 [CIL52]
[1]
  binding to cobalt (II) in vitro: bound to cobalt (II) in vitro
BJeLR
  AUC, modulator BJ.3MA: 0.0119
  AUC, modulator BJ.ALLN: 0.01092
  AUC, modulator BJ.Boc D: 0.0184
  AUC, modulator BJ.CHX: 0.03724
  AUC, modulator BJ.Co2+: 0.7978
  AUC, modulator BJ.DPQ: 0.03648
  AUC, modulator BJ.Gd3+: 0.08327
  AUC, modulator BJ.LNAME: −0.01578
  AUC, modulator BJ.Lmin/NAD+: 0.08265
  AUC, modulator BJ.Lmin: 0.007783
  AUC, modulator BJ.NAD+: 0.09321
  AUC, modulator BJ.NMMA: −0.006118
  AUC, modulator BJ.Nec-1: 0.03888
  AUC, modulator BJ.Pepstatin: 0.02196
  AUC, modulator BJ.TLCK: 0.284
HT-1080
  AUC HT.ATA: 0.03417
  AUC HT.ActD: 0.07379
  AUC HT.BHA: −0.01302
  AUC HT.BHT: −0.06719
  AUC HT.BocD: 0.008582
  AUC HT.CHX: 0.1474
  AUC HT.Co2+: 0.4155
  AUC HT.CspA: 0.05641
  AUC HT.DPQ: −0.0133
  AUC HT.EGTA: 0.09078
  AUC HT.Gd3+: −0.006922
  AUC HT.LNAME: −0.009412
  AUC HT.Lmim: 0.02654
  AUC HT.NAD+: 0.01945
  AUC HT.NMMA: −0.01196
  HT.atoc (AUC): 0.07146
  HT.bCarotene (AUC): 0.06784
  HT.deferox (AUC): 0.2325
  HT.digoxin (AUC): −0.005506
  HT.trolox (AUC): −0.03942
  HT.zVAD (AUC): 0.02339
  effect of cobalt (II) on lethality: inhibited by cobalt (II)

## C/C(=N\Nc1ncc(Cl)cc1Cl)c1ccccn1 [CIL64]
[1]
  binding to cobalt (II) in vitro: bound to cobalt (II) in vitro
BJeLR
  AUC, modulator BJ.3MA: 0.02465
  AUC, modulator BJ.ALLN: 0.0142
  AUC, modulator BJ.Boc D: 0.01108
  AUC, modulator BJ.CHX: 0.04712
  AUC, modulator BJ.Co2+: 0.9402
  AUC, modulator BJ.DPQ: 0.009397
  AUC, modulator BJ.Gd3+: 0.02721
  AUC, modulator BJ.LNAME: 0.03249
  AUC, modulator BJ.Lmin/NAD+: 0.0757
  AUC, modulator BJ.Lmin: 0.02777
  AUC, modulator BJ.NAD+: 0.1422
  AUC, modulator BJ.NMMA: 0.001966
  AUC, modulator BJ.Nec-1: 0.05533
  AUC, modulator BJ.Pepstatin: 0.04262
  AUC, modulator BJ.TLCK: 0.06508
HT-1080
  AUC HT.ATA: 0.1979
  AUC HT.ActD: 0.04802
  AUC HT.BHA: −0.1469
  AUC HT.BHT: −0.3128
  AUC HT.BocD: −0.1078
  AUC HT.CHX: 0.06685
  AUC HT.Co2+: 0.4161
  AUC HT.CspA: 0.08661
  AUC HT.DPQ: −0.135
  AUC HT.EGTA: 0.1842
  AUC HT.Gd3+: −0.0263
  AUC HT.LNAME: <0.2159
  AUC HT.Lmim: −0.2705
  AUC HT.NAD+: −0.1971
  AUC HT.NMMA: −0.1742
  HT.atoc (AUC): −0.06249
  HT.bCarotene (AUC): 0.1654
  HT.deferox (AUC): 0.127
  HT.digoxin (AUC): 0.0348
  HT.trolox (AUC): −0.08079
  HT.zVAD (AUC): 0.05557
  effect of cobalt (II) on lethality: inhibited by cobalt (II)
